From patent US4228158A, “Synthetic peptides having pituitary growth hormone releasing activity” (priority 1979, dated 1980)
Non-standard residues stand in square brackets, D forms with d. Residues, ends and D or L forms follow the SMILES beside them.

Test system: pituitaries removed from 20 day old female rats
Assay: In vitro growth hormone release study (incubated rat pituitaries, GH radioimmunoassay)
Type: cell-based
Conditions: two pituitaries in 1 ml lactated Ringer's, 36° C., ± SEM
Description: Female rats of the CD-1 strain were housed in a constant temperature room at 24° C. with 14 hours light and 10 hours darkness. The rats were fed Purina brand rat chow ab libitum.
All studies were started between 0800 and 1000 hours.
Pituitaries were removed from 20 day old female rats. Two pituitaries were incubated at 36° C. in 1 ml of lactated Ringer's solution in 10 ml polytetrafluoroethylene beakers in a Dubnoff Shaker (90 cycles/min.). The pituitaries were incubated a total of 4 hours (P1, P2, I3, and I4). After two successive one hour preincubation periods (P1, P2), the peptide was added to the incubation medium hourly for 2 hours (I3, I4).
This in vitro study was performed in triplicate and a standard radioimmunoassay of growth hormone present in the incubation medium was performed in duplicate. The hormonal activity was calculated as the difference (Δ) of growth hormone (GH) levels between I3, I4 and P2, i.e., (I3 -P2) and (I4 -P2). P values were calculated by Students' t test using six growth hormone values for each value recorded.
The growth hormone radioimmunoassay reagents were distributed by the National Institute of Arthritis and […] (NIAMDD) program. The growth hormone values were calculated in terms of nanograms (ng) of a rat standard with a growth hormone potency of 0.61 units/mg.

`CSCC[C@H](NC(=O)[C@H](Cc1ccccc1)NC(=O)[C@@H](Cc1c[nH]c2ccccc12)NC(=O)[C@@H](Cc1c[nH]c2ccccc12)NC(=O)[C@@H](N)Cc1ccc(O)cc1)C(N)=O` [H2 N-Tyr-D-Trp-D-Trp-Phe-Met-CONH2] (H-Y[dW][dW]FM-NH2) was tested. Which “In vitro growth hormone release (ΔGH, I3-P2 and I4-P2)” value (1μg peptide, P <0.001) did it give?
Its value is 1697 ± 222 ngΔGH/ml incubation medium.

And the “In vitro growth hormone release (ΔGH, I3-P2 and I4-P2)” value (20μg peptide, P <0.001)?
Its value is 1530 ± 208 ngΔGH/ml incubation medium.

What about the “In vitro growth hormone release (ΔGH, I3-P2 and I4-P2)” value (100μg peptide, P ~0.02) of the same molecule?
The value was 219 ± 113 ngΔGH/ml incubation medium.
